Measurements: patent US9006250B2, “4-amino-6-(heterocyclic)picolinates and 6-amino-2-(heterocyclic)pyrimidine-4-carboxylates and their use as herbicides” (Dow AgroSciences, LLC, priority 2013, dated 2015)

Tests used:
Assay in all cases: Post-Emergent Test II herbicidal activity
Type in all cases: in vivo
[1] = tested on: ABUTH: velvetleaf (Abutilon theophrasti); conditions: post-emergence, 336 h, 14 days, read-out: Visual Growth Reduction (%) 14 Days After Application ABUTH; for pest or weed control at 35 g/ha: 35 g ai/ha; for pest or weed control at 70 g/ha: 70 g ai/ha; for pest or weed control at 140 g/ha: 140 g ai/ha
Experimental: (§1) Post-Emergent Test II: Seeds or nutlets of the desired test plant species were planted in Sun Gro Metro-Mix® 360 planting mixture, which typically has a pH of 6.0 to 6.8 and an organic matter content of about 30 percent, in plastic pots with a surface area of 64 square centimeters. When required to ensure good germination and healthy plants, a fungicide treatment and/or other chemical or physical treatment was applied. The plants were grown for 7-21 d in a greenhouse with an approximate 15 h photoperiod which was maintained at about 23-29° C. during the day and 22-28° C. during the night. Nutrients and water were added on a regular basis and supplemental lighting was provided with overhead metal halide 1000-Watt lamps as necessary. The plants were employed for testing when they reached the first or second true leaf stage.
(§2) A weighed amount, determined by the highest rate to be tested, of each test compound was placed in a 25 mL glass vial and was dissolved in 4 mL of a 97:3 v/v mixture of acetone and DMSO to obtain concentrated stock solutions. […] The concentrated stock solutions obtained were diluted with 20 mL of an aqueous mixture containing acetone, water, isopropyl alcohol, DMSO, Atplus 411F crop oil concentrate, and Triton® X-155 surfactant in a 48.5:39:10:1.5:1.0:0.02 v/v ratio to obtain spray solutions containing the highest application rates. Additional application rates were obtained by serial dilution of 12 mL of the high rate solution into a solution containing 2 mL of 97:3 v/v mixture of acetone and DMSO and 10 mL of an aqueous mixture containing acetone, water, isopropyl alcohol, DMSO, Atplus 411F crop oil concentrate, and Triton X®-155 surfactant in a 48.5:39:10:1.5:1.0:0.02 v/v ratio to obtain ½×, ¼×, ⅛× and 1/16× rates of the high rate. Compound requirements are based upon a 12 mL application volume at a rate of 187 liters per hectare (L/ha). Formulated compounds were applied to the plant material with an overhead Mandel track sprayer equipped with 8002E nozzles calibrated to deliver 187 L/ha over an application area of 0.503 square meters at a spray height of 18 inches […] above the average plant canopy height. Control plants were sprayed in the same manner with the solvent blank.
(§3) The treated plants and control plants were placed in a greenhouse as described above and watered by subirrigation to prevent wash-off of the test compounds. After 14 d, the condition of the test plants as compared with that of the untreated plants was determined visually and scored on a scale of 0 to 100 percent where 0 corresponds to no injury and 100 corresponds to complete kill.

[2] = tested on: AMARE: redroot pigweed (Amaranthus retroflexus); conditions: post-emergence, 336 h, 14 days, read-out: Visual Growth Reduction (%) 14 Days After Application AMARE
Experimental: as §1, §2, §3

[3] = tested on: BRSNN: oilseed rape, canola (Brassica napus); conditions: post-emergence, 336 h, 14 days, read-out: Visual Growth Reduction (%) 14 Days After Application BRSNN; for pest or weed control at 35 g/ha: 35 g ai/ha; for pest or weed control at 70 g/ha: 70 g ai/ha; for pest or weed control at 140 g/ha: 140 g ai/ha
Experimental: as §1, §2, §3

[4] = tested on: CHEAL: lambsquarters (Chenopodium album); conditions: post-emergence, 336 h, 14 days, read-out: Visual Growth Reduction (%) 14 Days After Application CHEAL; for pest or weed control at 35 g/ha: 35 g ai/ha; for pest or weed control at 70 g/ha: 70 g ai/ha; for pest or weed control at 140 g/ha: 140 g ai/ha
Experimental: as §1, §2, §3

[5] = tested on: CYPES: yellow nutsedge (Cyperus esculentus); conditions: post-emergence, 336 h, 14 days, read-out: Visual Growth Reduction (%) 14 Days After Application CYPES; for pest or weed control at 35 g/ha: 35 g ai/ha; for pest or weed control at 70 g/ha: 70 g ai/ha; for pest or weed control at 140 g/ha: 140 g ai/ha
Experimental: as §1, §2, §3

[6] = tested on: ECHCG: barnyardgrass (Echinochloa crus-galli); conditions: post-emergence, 336 h, 14 days, read-out: Visual Growth Reduction (%) 14 Days After Application ECHCG; for pest or weed control at 35 g/ha: 35 g ai/ha; for pest or weed control at 70 g/ha: 70 g ai/ha; for pest or weed control at 140 g/ha: 140 g ai/ha
Experimental: as §1, §2, §3

[7] = tested on: EPHHL: wild poinsettia (Euphorbia heterophylla); conditions: post-emergence, 336 h, 14 days, read-out: Visual Growth Reduction (%) 14 Days After Application EPHHL; for pest or weed control at 35 g/ha: 35 g ai/ha; for pest or weed control at 70 g/ha: 70 g ai/ha; for pest or weed control at 140 g/ha: 140 g ai/ha
Experimental: as §1, §2, §3

[8] = tested on: HELAN: sunflower (Helianthus annuus); conditions: post-emergence, 336 h, 14 days, read-out: Visual Growth Reduction (%) 14 Days After Application HELAN; for pest or weed control at 35 g/ha: 35 g ai/ha; for pest or weed control at 70 g/ha: 70 g ai/ha; for pest or weed control at 140 g/ha: 140 g ai/ha
Experimental: as §1, §2, §3

[9] = tested on: ORYSA: rice (Oryza sativa); conditions: post-emergence, 336 h, 14 days, read-out: Visual Growth Reduction (%) 14 Days After Application ORYSA; for pest or weed control at 35 g/ha: 35 g ai/ha; for pest or weed control at 70 g/ha: 70 g ai/ha; for pest or weed control at 140 g/ha: 140 g ai/ha
Experimental: as §1, §2, §3

[10] = tested on: TRZAS: wheat, spring (Triticum aestivum); conditions: post-emergence, 336 h, 14 days, read-out: Visual Growth Reduction (%) 14 Days After Application TRZAS; for pest or weed control at 35 g/ha: 35 g ai/ha; for pest or weed control at 70 g/ha: 70 g ai/ha; for pest or weed control at 140 g/ha: 140 g ai/ha
Experimental: as §1, §2, §3

[11] = tested on: ZEAMX: maize, corn (Zea mays); conditions: post-emergence, 336 h, 14 days, read-out: Visual Growth Reduction (%) 14 Days After Application ZEAMX; for pest or weed control at 35 g/ha: 35 g ai/ha; for pest or weed control at 70 g/ha: 70 g ai/ha; for pest or weed control at 140 g/ha: 140 g ai/ha
Experimental: as §1, §2, §3

[12] = tested on: SETFA: giant foxtail (Setaria faberi); conditions: post-emergence, 336 h, 14 days, read-out: Visual Growth Reduction (%) 14 Days After Application SETFA; for pest or weed control at 35 g/ha: 35 g ai/ha; for pest or weed control at 70 g/ha: 70 g ai/ha; for pest or weed control at 140 g/ha: 140 g ai/ha
Experimental: as §1, §2, §3

Compound | pest or weed control at 35 g/ha [1] [%] | pest or weed control at 70 g/ha [1] [%] | pest or weed control at 140 g/ha [1] [%] | pest or weed control at 35 g/ha [3] [%] | pest or weed control at 70 g/ha [3] [%] | pest or weed control at 140 g/ha [3] [%] | pest or weed control at 35 g/ha [4] [%] | pest or weed control at 70 g/ha [4] [%] | pest or weed control at 140 g/ha [4] [%] | pest or weed control at 35 g/ha [5] [%] | pest or weed control at 70 g/ha [5] [%] | pest or weed control at 140 g/ha [5] [%] | pest or weed control at 35 g/ha [6] [%] | pest or weed control at 70 g/ha [6] [%] | pest or weed control at 140 g/ha [6] [%] | pest or weed control at 35 g/ha [7] [%] | pest or weed control at 70 g/ha [7] [%] | pest or weed control at 140 g/ha [7] [%] | pest or weed control at 35 g/ha [8] [%] | pest or weed control at 70 g/ha [8] [%] | also measured
Nc1c(F)c(-c2ccc3nonc3c2)nc(C(=O)O)c1Cl [Compound 2, 4-Amino-6-(benzo[c][1,2,5]oxadiazol-5-yl)-3-chloro-5-fluoropicolinic acid] | 75 to 84 | 75 to 84 | 85 to 94 | 60 to 74 | 75 to 84 | 75 to 84 | 95 to 100 | 95 to 100 | 95 to 100 | 0 to 29 | 0 to 29 | 0 to 29 | 60 to 74 | 75 to 84 | 75 to 84 | 60 to 74 | 60 to 74 | 60 to 74 | 85 to 94 | 85 to 94 | pest or weed control at 35 g/ha ([2]; 35 g ai/ha): 95 to 100%; pest or weed control at 70 g/ha ([2]; 70 g ai/ha): 95 to 100%; pest or weed control at 140 g/ha ([2]; 140 g ai/ha): 95 to 100%; pest or weed control at 140 g/ha [8]: 95 to 100%; pest or weed control at 35 g/ha [9]: 0 to 29%; pest or weed control at 70 g/ha [9]: 0 to 29%; pest or weed control at 140 g/ha [9]: 0 to 29%; pest or weed control at 35 g/ha [10]: 60 to 74%; pest or weed control at 70 g/ha [10]: 60 to 74%; pest or weed control at 140 g/ha [10]: 60 to 74%; pest or weed control at 35 g/ha [11]: 60 to 74%; pest or weed control at 70 g/ha [11]: 60 to 74%; pest or weed control at 140 g/ha [11]: 60 to 74%
COc1cc2nonc2cc1-c1cc(N)c(Cl)c(C(=O)O)n1 [Compound 5, 4-Amino-3-chloro-6-(6-methoxybenzo[c][1,2,5]oxadiazol-5-yl)picolinic acid] | 0 to 29 | 0 to 29 | 0 to 29 | 0 to 29 | 0 to 29 | 0 to 29 | 0 to 29 | 0 to 29 | 0 to 29 | 0 to 29 | 0 to 29 | 0 to 29 | 0 to 29 | 0 to 29 | 0 to 29 | 0 to 29 | 0 to 29 | 0 to 29 | 0 to 29 | 0 to 29 | pest or weed control at 140 g/ha [8]: 0 to 29%; pest or weed control at 35 g/ha [9]: 0 to 29%; pest or weed control at 70 g/ha [9]: 0 to 29%; pest or weed control at 140 g/ha [9]: 0 to 29%; pest or weed control at 35 g/ha [12]: 0 to 29%; pest or weed control at 70 g/ha [12]: 0 to 29%; pest or weed control at 140 g/ha [12]: 0 to 29%; pest or weed control at 35 g/ha [10]: 0 to 29%; pest or weed control at 70 g/ha [10]: 0 to 29%; pest or weed control at 140 g/ha [10]: 0 to 29%; pest or weed control at 35 g/ha [11]: 0 to 29%; pest or weed control at 70 g/ha [11]: 0 to 29%; pest or weed control at 140 g/ha [11]: 0 to 29%
COC(=O)c1nc(-c2cc3nonc3cc2F)nc(N)c1OC [Compound 10, Methyl 6-amino-2-(6-fluorobenzo[c][1,2,5]oxadiazol-5-yl)-5-methoxypyrimidine-4-carboxylate] | 0 to 29 | 0 to 29 | 0 to 29 | 60 to 74 | 75 to 84 | 75 to 84 | 0 to 29 | 0 to 29 | 0 to 29 | 0 to 29 | 0 to 29 | 0 to 29 | 0 to 29 | 0 to 29 | 0 to 29 | 45 to 59 | 60 to 74 | 75 to 84 | 0 to 29 | 0 to 29 | pest or weed control at 35 g/ha [9]: 0 to 29%; pest or weed control at 70 g/ha [9]: 0 to 29%; pest or weed control at 140 g/ha [9]: 0 to 29%; pest or weed control at 35 g/ha [12]: 0 to 29%; pest or weed control at 70 g/ha [12]: 0 to 29%; pest or weed control at 140 g/ha [12]: 0 to 29%; pest or weed control at 35 g/ha [10]: 0 to 29%; pest or weed control at 70 g/ha [10]: 0 to 29%; pest or weed control at 140 g/ha [10]: 0 to 29%; pest or weed control at 35 g/ha [11]: 0 to 29%; pest or weed control at 70 g/ha [11]: 0 to 29%; pest or weed control at 140 g/ha [11]: 0 to 29%
